The subject of one data set is E-box-LUC reporter. As to the kind of experiment: E-box-LUC luciferase reporter assay, dose-response in stably transfected NIH3T3 cells. In kind it is cell-based. To be noted: Mus musculus, E-box-LUC reporter activity, NIH3T3, 36 h; for Emax: maximum response as a percentage of the vehicle-treated group, read-out: Max (%). The procedure: Materials for cell culture were purchased from Thermo Fisher Scientific, unless otherwise stated. NIH3T3 and HEK293T cells were maintained in Dulbecco’s modified Eagle medium supplemented with 5% fetal bovine serum and 100 U/mL penicillin/streptomycin in a humidified atmosphere containing 5% CO2 at 37 °C. Plasmids and transfection experiments for luciferase reporter assay were described in our previous report. For dose-response experiments, mouse NIH3T3 cells stably transfected with an E-box-LUC reporter were plated in 12-well culture plates, treated as indicated for 36 h, and subjected to luciferase assay. For transient transfections, we seeded HEK293T cells in 12-well culture plates and used Lipofectamine® 3000 reagent to transfect cells with the E-box-LUC reporter and the indicated clock gene expression plasmids together with a thymidine kinase promoter-driven Renilla luciferase (pRL-TK) plasmids. We kept total DNA levels constant by adding an empty pcDNA3.1 plasmid. After 24 h of transfection, cells were treated with vehicle (0.1% DMSO) or chemical compounds at various concentrations for 36 h. Cell extracts were prepared by incubating cells in 0.3 mL reporter lysis buffer for 15 min at room temperature. Luciferase activity was measured with a commercial dual luciferase assay kit (Promega, Madison, WI, USA).
(§1) The EC50 values for luciferase reporter assay were calculated based on a logistic four-parametric equation using the mean values of intrinsic activation (SigmaPlot 10.0; Systat Software Inc., San Jose, CA, USA). The IC50 and t1/2 values for the cytochrome P450 inhibition assay and metabolic stability test were calculated by WinNonlin software (Pharsight, Mountain View, CA, USA). Pharmacokinetic parameters were calculated using non-compartmental analysis (WinNonlin v.8.3; Pharsight, Mountain View, CA, USA). Kinetic and equilibrium constants for SPR analysis were obtained by global fitting of the Langmuir 1:1 bimolecular kinetic model (ProteOn Manager v.3.1.0.6, Bio-Rad, Hercules, CA, USA). Circadian molecular clock-enhancing activities were expressed as means ± SE and statistically evaluated by Student’s t-test or one-way analysis of variance (ANOVA) followed by Newman–Keuls multiple comparison test for post hoc comparisons. The significance level for the analyses was set at p < 0.05.

Another data set addresses T1, CYP1A2 (Homo sapiens, UniProt P05177).
T1 construct: pooled human liver microsomes (HLMs, XTreme 200, XenoTech, Lenexa, KS, USA); tissue XenoTech XTreme 200; host or cells: pooled human liver microsomes
T1 sequence (P05177 1-516): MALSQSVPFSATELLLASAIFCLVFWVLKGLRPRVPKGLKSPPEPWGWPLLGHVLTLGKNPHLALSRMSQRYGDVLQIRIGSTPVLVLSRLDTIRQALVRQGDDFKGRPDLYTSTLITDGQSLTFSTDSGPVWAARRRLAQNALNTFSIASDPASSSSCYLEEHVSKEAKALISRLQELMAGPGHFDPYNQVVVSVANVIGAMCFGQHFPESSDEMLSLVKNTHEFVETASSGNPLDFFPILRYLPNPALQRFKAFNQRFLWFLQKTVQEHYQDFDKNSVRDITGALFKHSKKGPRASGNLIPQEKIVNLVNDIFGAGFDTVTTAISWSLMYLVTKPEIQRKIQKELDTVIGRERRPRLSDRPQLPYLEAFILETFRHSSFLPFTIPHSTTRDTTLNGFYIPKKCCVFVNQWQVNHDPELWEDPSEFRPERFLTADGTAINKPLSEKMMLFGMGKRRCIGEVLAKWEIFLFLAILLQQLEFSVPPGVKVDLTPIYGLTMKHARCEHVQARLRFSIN
As to the kind of experiment: Cytochrome P450 inhibition assay (cocktail method, human liver microsomes), phenacetin O-deethylation. In kind it is in vitro ADME. On the procedure: (§2) The inhibitory effects of KS15 and compound 5d on the metabolism of five cytochrome P450 (P450) probe substrates were evaluated using previous methods with slight modifications. The following P450 probe substrates were used: phenacetin (100 μM) for CYP1A2, tolbutamide (100 μM) for CYP2C9, omeprazole (20 μM) for CYP2C19, dextromethorphan (5 μM) for CYP2D6, and midazolam (5 μM) for CYP3A. Incubation mixtures containing pooled human liver microsomes (HLMs, XTreme 200, XenoTech, Lenexa, KS, USA), P450 probe substrates, and KS15 or compound 5d (final concentrations: 0, 0.5, 2, 5, 20, and 50 μM) were preincubated for 5 min at 37 °C. […] After centrifugation at 18,000× g (5 min, 4 °C), supernatant aliquots were analyzed by liquid chromatography-tandem mass spectrometry (LC-MS/MS). […]
(§3) All metabolites and IS were separated on a Kinetex C18 column (100 mm × 2.1 mm, 2.6 μm ID., Phenomenex, Torrance, CA, USA) and analyzed using an LC-MS/MS system (LCMS 8060, Shimadzu, Tokyo, Japan) equipped with an electrospray ionization (ESI) interface. […]
(§4) The EC50 values for luciferase reporter assay were calculated based on a logistic four-parametric equation using the mean values of intrinsic activation (SigmaPlot 10.0; Systat Software Inc., San Jose, CA, USA). […] Pharmacokinetic parameters were calculated using non-compartmental analysis (WinNonlin v.8.3; Pharsight, Mountain View, CA, USA). […]
For orientation: Liver microsomes are vesicles of endoplasmic reticulum, rich in cytochrome P450 enzymes.

In the next data set the target is T2, CYP2C9 (Homo sapiens, UniProt P11712).
T2 construct: pooled human liver microsomes (HLMs, XTreme 200, XenoTech, Lenexa, KS, USA); tissue XenoTech XTreme 200; host or cells: pooled human liver microsomes
The experiment in a line: Cytochrome P450 inhibition assay (cocktail method, human liver microsomes), tolbutamide 4-methylhydroxylation. In kind it is in vitro ADME. On the procedure: as §2, §3, §4

The next data set deals with T3, CYP2C19 (Homo sapiens, UniProt P33261).
T3 construct: pooled human liver microsomes (HLMs, XTreme 200, XenoTech, Lenexa, KS, USA); tissue XenoTech XTreme 200; host or cells: pooled human liver microsomes
The experiment in a line: Cytochrome P450 inhibition assay (cocktail method, human liver microsomes), omeprazole hydroxylation. In kind it is in vitro ADME. On the procedure: as §2, §3, §4

A further data set deals with T4, CYP2D6 (Homo sapiens, UniProt P10635).
T4 construct: pooled human liver microsomes (HLMs, XTreme 200, XenoTech, Lenexa, KS, USA); tissue XenoTech XTreme 200; host or cells: pooled human liver microsomes
As to the kind of experiment: Cytochrome P450 inhibition assay (cocktail method, human liver microsomes), dextromethorphan O-demethylation. In kind it is in vitro ADME. On the procedure: as §2, §3, §4

The test system of the next data set is CYP3A. The experiment in a line: Cytochrome P450 inhibition assay (cocktail method, human liver microsomes), midazolam 1'-hydroxylation. In kind it is in vitro ADME. To be noted: pooled human liver microsomes, probe midazolam (5 μM). On the procedure: as §2, §3, §4
Data set [1] in a line: Metabolic stability test in pooled human liver microsomes. In kind it is in vitro ADME. The settings on record: pooled HLMs 1.0 mg/mL, 1 μM compound, NADPH generating system, read-out: t1/2 in HLMs. The procedure:
The metabolic stability of KS15, 5d, or 2d was evaluated using pooled HLMs. Pooled HLMs (1.0 mg/mL), a potassium phosphate buffer, and a test compound (1 μM) were pre-incubated (37 °C, 5 min). To initiate the reaction, the NADPH generating system was added to the samples and incubated for specific time points (0, 5, 15, 20, 45, and 60 min). Then, aliquots were taken and reactions terminated in acetonitrile containing IS. After centrifugation, supernatants were analyzed using LC-MS/MS to determine KS15, 5d, or 2d concentrations in samples. Analyte separation was performed using a Kinetex C18 column (100 mm × 2.1 mm, 2.6 μm ID., Phenomenex). The mobile phase solvent A was 0.1% formic acid in water, and solvent B was 0.1% formic acid in acetonitrile. Gradient separation was performed as follows: 0–3 min (10–90% B) and 3.1–8 min (10% B). The flow rate was 0.2 mL/min, and the run time was 8 min for each sample. Electrospray ionization was conducted in positive ion mode at 4 kV. […] Quantitation was performed in the SRM of the [M+H]^+ ion and the related product ion for each test compound and IS: KS-15 (m/z 420 > 169, CE 30 eV), 5d (m/z 359 > 206, CE 20 eV), 2d (m/z 345 > 192, CE 22 eV), and IS (m/z 295 > 100, CE 17 eV).
as §1, with “Kinetic and equilibrium constants for SPR analysis were obtained by global fitting of the Langmuir 1:1 bimolecular kinetic model (ProteOn Manager v.3.1.0.6, Bio-Rad, Hercules, CA, USA).” left out, “The significance level for the analyses was set at p < 0.05.” left out

Data set [2] relates to Per2-luciferase knock-in (Per2-Luc-KI) fibroblast cultures. The experiment in a line: Real-time bioluminescence monitoring of DEX-synchronized Per2-Luc-KI fibroblast cultures. To be noted: 20 μM, DEX-synchronized Per2-Luc-KI fibroblasts. In kind it is cell-based, mouse. On the procedure:
For real-time bioluminescence monitoring, we used mouse embryonic fibroblast (MEF) cultures established from Per2-LUC-KI mice. […] The medium was then replaced with a recording medium containing 0.1 mM D-luciferin (Promega) along with vehicle (0.1% DMSO), KS15 (20 μM), 5d (20 μM), or 2d (20 μM). Light emission for 2 min at intervals of 20 min was integrated using a dish-type wheeled luminometer (Kronos-Dio, ATTO Cooperation, Tokyo, Japan). Background-subtracted bioluminescence profiles were analyzed using Cosinor analysis software (available at http://www.circadian.org, last accessed on 19 May 2021).
as §1

The source of these data is publication PMC8225008, “Development of Non-Ethoxypropanoic Acid Type Cryptochrome Inhibitors with Circadian Molecular Clock-Enhancing Activity by Bioisosteric Replacement” (Pharmaceuticals, 2021).

As usually defined, the EC50 is the concentration at which the effect is half-maximal. High values mean a less potent agent, low ones a more potent agent. By IC50 is commonly meant the concentration needed to halve the response being measured. Lower therefore signals higher potency.

T4 sequence (P10635 whole entry): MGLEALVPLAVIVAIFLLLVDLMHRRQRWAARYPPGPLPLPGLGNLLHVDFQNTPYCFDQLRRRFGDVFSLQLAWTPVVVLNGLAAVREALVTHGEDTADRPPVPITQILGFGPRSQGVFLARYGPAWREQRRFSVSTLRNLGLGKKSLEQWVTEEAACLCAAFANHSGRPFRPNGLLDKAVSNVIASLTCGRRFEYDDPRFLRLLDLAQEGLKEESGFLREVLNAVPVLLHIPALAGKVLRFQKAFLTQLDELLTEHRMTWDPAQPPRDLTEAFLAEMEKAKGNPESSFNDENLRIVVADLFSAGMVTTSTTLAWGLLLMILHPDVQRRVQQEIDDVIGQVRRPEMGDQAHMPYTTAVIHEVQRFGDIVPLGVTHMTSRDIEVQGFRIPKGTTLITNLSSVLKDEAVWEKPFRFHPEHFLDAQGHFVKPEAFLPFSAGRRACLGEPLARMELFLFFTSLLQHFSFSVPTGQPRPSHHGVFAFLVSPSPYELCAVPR
T2 sequence (P11712 whole entry): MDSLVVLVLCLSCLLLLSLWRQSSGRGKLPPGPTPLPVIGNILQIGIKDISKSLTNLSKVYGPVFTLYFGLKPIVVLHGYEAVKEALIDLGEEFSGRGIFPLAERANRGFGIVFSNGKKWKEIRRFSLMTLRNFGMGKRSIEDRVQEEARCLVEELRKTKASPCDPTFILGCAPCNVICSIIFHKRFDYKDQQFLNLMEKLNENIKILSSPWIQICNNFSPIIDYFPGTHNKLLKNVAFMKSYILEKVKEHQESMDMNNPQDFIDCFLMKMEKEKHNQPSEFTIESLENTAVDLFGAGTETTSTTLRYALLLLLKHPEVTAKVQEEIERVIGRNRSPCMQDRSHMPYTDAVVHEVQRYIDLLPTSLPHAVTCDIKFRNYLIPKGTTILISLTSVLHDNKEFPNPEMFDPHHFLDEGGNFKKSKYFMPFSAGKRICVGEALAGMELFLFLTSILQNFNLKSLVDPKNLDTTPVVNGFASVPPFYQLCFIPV
T3 sequence (P33261 whole entry): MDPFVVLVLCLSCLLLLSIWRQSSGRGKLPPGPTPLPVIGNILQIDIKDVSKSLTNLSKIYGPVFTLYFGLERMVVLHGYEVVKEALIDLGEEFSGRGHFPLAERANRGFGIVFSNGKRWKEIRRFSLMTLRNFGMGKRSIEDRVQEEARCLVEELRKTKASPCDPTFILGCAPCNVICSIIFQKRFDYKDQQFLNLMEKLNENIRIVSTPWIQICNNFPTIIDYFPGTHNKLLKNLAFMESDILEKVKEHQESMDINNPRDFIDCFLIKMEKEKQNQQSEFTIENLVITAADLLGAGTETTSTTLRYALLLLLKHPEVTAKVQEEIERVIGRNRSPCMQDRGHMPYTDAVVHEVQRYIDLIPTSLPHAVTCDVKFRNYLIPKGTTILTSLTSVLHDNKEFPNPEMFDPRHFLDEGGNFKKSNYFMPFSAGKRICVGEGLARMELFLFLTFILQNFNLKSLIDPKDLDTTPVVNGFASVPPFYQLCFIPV

Consider `C/C(=N\OCc1ccc(Br)cc1)c1cccc(OCC(=O)O)c1` [Compound 2a], for which, in the data set with E-box-LUC reporter, the EC50 was 1.54 µM and the Emax worked out at 165%.

On to `CC(=NOCc1cccc(C(F)(F)F)c1)c1cccc(OCC(=O)O)c1` [Compound 2b, 2-(3-(1-(((3-trifluoromethylbenzyl)oxy)imino)ethyl)phenoxy)acetic acid], for which, in the data set on E-box-LUC reporter, the Emax was 131%.

Regarding `COc1ccc(CON=C(C)c2cccc(OCC(=O)O)c2)cc1` [Compound 2c, 2-(3-(1-(((4-methoxybenzyl)oxy)imino)ethyl)phenoxy)acetic acid], in the data set with E-box-LUC reporter, the EC50 came to 9.88 µM and the Emax came to 182%.

Turning to `CC(=NOCc1ccc(S(C)(=O)=O)cc1)c1cccc(OCC(=O)O)c1` [Compound 2e, 2-(3-(1-(((4-methylsulfonylbenzyl)oxy)imino)ethyl)phenoxy)acetic acid], the Emax with E-box-LUC reporter was determined as 98.7%.

In the case of `COC(=O)COc1cccc(/C(C)=N/OCc2ccc(Br)cc2)c1` [Compound 5a], the Emax in the data set on E-box-LUC reporter worked out at 149%.

With `COC(=O)COc1cccc(C(C)=NOCc2cccc(C(F)(F)F)c2)c1` [Compound 5b, Methyl 2-(3-(1-(((3-trifluoromethylbenzyl)oxy)imino)ethyl)phenoxy)acetate], the Emax with E-box-LUC reporter turned out to be 172%.

As to `COC(=O)COc1cccc(C(C)=NOCc2ccc(OC)cc2)c1` [Compound 5c, Methyl 2-(3-(1-(((4-methoxybenzyl)oxy)imino)ethyl)phenoxy)acetate], in the data set with E-box-LUC reporter, the concentration giving a half-maximal response (EC50) was 6.32 µM and the Emax was found to be 152%.

With `COC(=O)COc1cccc(C(C)=NOCc2ccc(S(C)(=O)=O)cc2)c1` [Compound 5e, Methyl 2-(3-(1-(((4-methylsulfonylbenzyl)oxy)imino)ethyl)phenoxy)acetate], the Emax in the data set on E-box-LUC reporter is 105%.

For the compound `CCO[C@H](Cc1cccc(/C(C)=N/OCc2ccc(Br)cc2)c1)C(=O)O` [KS15, reference compound], the IC50 against CYP1A2 worked out at 14.9 µM; on CYP2C9 it was 9.1 µM; against CYP2C19 it was 20.2 µM; against CYP2D6 it was 23.1 µM. The IC50 at 10 min in the data set with CYP3A worked out at 24 µM. In addition, in data set [1], the half-life at 1 μM was above 1 h. Moreover, the “Amplitude of cyclic Per2 expression” value in data set [2] was “attenuates amplitude”. The “Period of the rhythm” value in data set [2] was “did not significantly alter the period”.
